What was measured:
[1] = test system: Arabidopsis roots; conditions: in vivo; cited from earlier work
[2] = test system: Arabidopsis; test: Combinatorial root growth assay with plant growth media supplied with Trp; type: in vivo
Method: To further test this hypothesis, we supplied plant growth media with Trp (FIG. 4, FIGS. 13 and 14) and repeated the combinatorial assay. […] In contrast, root growth might improve if the WCS417 strain are metabolically active only around the root tips. […] However, at 10 μM, Trp inhibited the root growth of plants colonized with the wild-type WCS417 strain. […] Additionally, we inoculated the engineered strains to the Trp-overproducing Arabidopsis mutant line. Root growth and development of this Arabidopsis mutant line are not also impaired (FIG. 4).
First, Arabidopsis seeds are sterilized with 70% ethanol for 2 min and 10% bleach for 5 min. These seeds are rinsed five times with sterile water. Sterilized seeds are kept in a 4° C. fridge for 3 days and then are horizontally individually dispensed on the surface of 1/2 MS agar plates. The plates are vertically incubated in a plant growth chamber under a light cycle of 8 h dark and 16 h light for 6 days. […] On the following day, cultures are washed three times with sterile 10 mM MgCl2 solution and measured for values at OD600nm using an Eppendorf Spectro reader. Uniformly germinated 6-day-old seedlings are inoculated with 1 μL of OD600nm=0.2 culture of engineered WCS417 strains. […] Collected photos are analyzed using EZ-Root-VIS software (Shahzad et al., 2018) for primary root length, lateral root number, and total length.

SMILES | level of externally added IAA that significantly changes root phenotypes [1] [µM] | root growth ([2]; 0.1 μM of Trp in plant growth media) | root growth of plants colonized with the wild-type WCS417 strain ([2]; 10 μM Trp in plant growth media)
O=C(O)Cc1c[nH]c2ccccc12 [IAA, Indole-3-acetic acid] | 0.01 to 0.1 |  | 
N[C@@H](Cc1c[nH]c2ccccc12)C(=O)O [Trp, tryptophan] |  | did not see much impact | inhibited

Reference: patent US20250324977A1, “ENGINEERED BACTERIA FOR ENHANCED CROP PRODUCTION” (The Regents of the University of California, priority 2022, published 2025)
